# Assay results published in PMC3827942, “A novel type of N-acetylglutamate synthase is involved in the first step of arginine biosynthesis in Corynebacterium glutamicum” (BMC Genomics, 2013).
# What was measured:
# Cg3035 = target: T1, Cg3035 (Corynebacterium glutamicum, UniProt Q8NM40); assay: DTNB assay of CoA release at […] nm, crude extract; assay type: biochemical; conditions: 500 mM L-glutamate, 0.2 mM acetyl-CoA, 0.2 mM DTNB, 100 mM Tris-HCl pH 7.5, 25 C; overexpressing strain against deletion mutant; no acetyl-CoA consumption without glutamate
# T1 construct: gene Cgl2740; complete ORF, untagged as far as told, overexpressed from pZ8-1 in C. glutamicum ATCC 13032 and its cg3035 deletion mutant; crude extract
# T1 sequence (Q8NM40 entry or part of it): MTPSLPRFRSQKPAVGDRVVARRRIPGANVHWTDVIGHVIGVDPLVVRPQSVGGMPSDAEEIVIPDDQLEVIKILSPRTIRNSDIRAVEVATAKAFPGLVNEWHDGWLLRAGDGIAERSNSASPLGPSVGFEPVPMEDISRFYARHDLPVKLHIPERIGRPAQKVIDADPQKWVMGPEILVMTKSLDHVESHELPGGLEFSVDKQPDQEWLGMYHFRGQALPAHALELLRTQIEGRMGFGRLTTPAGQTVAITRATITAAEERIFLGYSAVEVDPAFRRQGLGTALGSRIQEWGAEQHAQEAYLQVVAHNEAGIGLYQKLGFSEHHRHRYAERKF
# ArgA from E. coli = target: T2, ArgA from E. coli (Escherichia coli, UniProt P0A6C5); assay: DTNB assay of CoA release at […] nm, crude extract; assay type: biochemical; conditions: 500 mM L-glutamate, 0.2 mM acetyl-CoA, 0.2 mM DTNB, 100 mM Tris-HCl pH 7.5, 25 C; wild-type C. glutamicum background with own NAGS activity
# T2 construct: structural gene overexpressed from pZ8-1 in wild-type C. glutamicum ATCC 13032; crude extract
# T2 sequence (P0A6C5 1-443): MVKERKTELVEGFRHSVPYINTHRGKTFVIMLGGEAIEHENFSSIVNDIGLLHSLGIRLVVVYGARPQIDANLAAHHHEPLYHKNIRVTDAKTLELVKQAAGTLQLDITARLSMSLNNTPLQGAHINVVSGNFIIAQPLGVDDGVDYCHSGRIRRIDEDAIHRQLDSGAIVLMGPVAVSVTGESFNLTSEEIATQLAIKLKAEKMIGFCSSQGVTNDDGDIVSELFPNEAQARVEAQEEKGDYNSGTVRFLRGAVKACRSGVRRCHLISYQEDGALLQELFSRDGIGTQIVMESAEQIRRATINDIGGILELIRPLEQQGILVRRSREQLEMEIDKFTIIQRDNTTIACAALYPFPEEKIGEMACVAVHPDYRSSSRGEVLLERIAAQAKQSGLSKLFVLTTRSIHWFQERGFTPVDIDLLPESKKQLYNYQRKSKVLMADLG
smiles,measurement,setting,value
CC(=O)SCCNC(=O)CCNC(=O)[C@H](O)C(C)(C)COP(=O)(O)OP(=O)(O)OC[C@H]1O[C@@H](n2cnc3c(N)ncnc32)[C@H](O)[C@@H]1OP(=O)(O)O [acetyl-CoA],"DTNB assay of CoA release at 412 nm, crude extract",Cg3035,the function of Cg3035 to use acetyl-CoA for acetylation of glutamate was demonstrated
same,"DTNB assay of CoA release at 412 nm, crude extract",ArgA from E. coli,ArgA from E. coli was found to confer additional NAGS activity
